According to US4795639A, “Potentiating formulations” (priority 1971, dated 1989):
Values joined by “and” are separate entries in the source; they are usually repeats but may differ in a detail not shown here. Equal entries are not always repeated.

Legend:
E. tenella = assay: coccidiosis screening test in chicks, E. tenella; assay type: in vivo, Eimeria tenella; details: Expt. 4; 100,000 oocysts; p.p.m SQX/DV/DMHP: b374 10/-/-; b375 -/20/-; b376 -/-/10; b377 10/-/10; b378 -/20/10; b379 10/20/-; b381 10/20/10; b382 20/-/-; b383 -/40/-; b384 -/-/20; b385 20/-/20; b386 -/40/20; b387 20/40/-; b389 20/40/20
Experimental: "Screening tests" were performed to establish the effectiveness of the compounds of formula (I) both alone and in combination with a competitor and or an inhibitor and to determine the most useful levels of relative concentrations of each component in combatting or suppressing coccidiosis.
Groups of Ranger cockerels, housed in small, heated cages with wire floors situated in enironmentally controlled isolation rooms, were infected orally with sporulated oocysts of the Eimeria spp such as E. tenella or E. acervulina. The appropriate test compound(s), (DMHP, sulphaquinoxaline (SQX) or diaveridine (DV) or any combination of these) were incorporated in a small quantity of specially formulated laboratory ration deficient in Vitamin K (`L.D.4 mash`), as a 1/10 pre-mix, which was then mixed into the diet on a horizontal roller drum mixed and administered to groups of chicks one day prior to infection, leaving some groups as untreated controls. Administration was continued for several days, for example about 8 or 9 days.
The amount of damage, marked by lesions in the caecal walls was investigated in those chicks that died during the course of the experiment, and in those sacrificed on the final day of administration, and compared with the untreated controls as a basis for the determination of therapeutic activity. In addition the mortality rate and the percentage weight gains in the various groups were assessed. A marked or definite effect of the administered drug could be recognised even when the mortality rates were similar or identical, since the increase in the weight gains and the reduction of the extension of lesions indicated by the lesion score, is characteristic of an improvement. […]
4:1 sulphaquinoxaline/diaveridine mixtures at levels of 80/20, 60/15, 40/10 and 20/5 p.p.m. were administered alone and in combination with a wide range of low concentrations of DMHP to the birds.
The results of these screening tests are set forth in Table 4 showing the concentration of the various component compounds in parts per million of the bird's diet, the mortality from coccidiosis, the percentage weight gain, the lesion score the oocyst output, and the activity. The caecal lesion index is calculated using a score system where: […]
In addition a score of 4 is assigned to any bird that dies of coccidiosis during the experiment. [formula] In the activity column, +++, ++, +, ± and - relate respectively to very high, high, slight, doubtful and nil activity of the test drug against the Eimeria infection.

Pasteurella multocida = Pasteurella multocida infection in chicks; assay type: in vivo
Pseudomonas aeruginosa = assay: zone inhibition, pteridine in agar, drugs in well; assay type: cell-based; details: for complete zone inhibition, SMX (300) / zone including partial inhibition, SMX (300): SMX 300 μg/ml; for zone including partial inhibition, TMP (30): TMP 30 μg/ml; for complete zone inhibition, TMP + SMX (5) (100) / zone including partial inhibition, TMP + SMX (5) (100): TMP 5 + SMX 100 μg/ml
Experimental: (§1) The pteridine was included in a soya peptone medium of low thymidine content (Wellcotest Sensitivity Test Agar) contained in a Petri-dish and the other component(s) added to the well resulting from the removal of a small plug from the medium. The surface of the medium was inoculated with the test organism and then incubated.

Staphylococcus aureus = assay: zone inhibition, pteridine in agar, drugs in well; assay type: cell-based; details: for complete zone inhibition, SMX (300) / zone including partial inhibition, SMX (300): SMX 300 μg/ml; for complete zone inhibition, TMP + SMX (5) (100) / zone including partial inhibition, TMP + SMX (5) (100): TMP 5 + SMX 100 μg/ml
Experimental: as §1

[1] = molecular target: T1, hydroxymethyldihydropteridine pyrophosphokinase (HMPPS) (Escherichia coli, UniProt P26281); assay: HMPPS assay: transfer of terminal phosphate of ATP-γ-P^32 to Pt; assay type: biochemical, E. coli; details: read-out: IC50
T1 construct: obtained from an extract of E. coli; endogenous in cells; host or cells: E. coli extract; HMPPS separated from synthetase on Sephadex G-100 (method of Richey and Brown 1969)
Text: (a) An assay for HMPPS was developed in which the transfer of the terminal phosphate of ATP-γ-P^32 to Pt could be monitored and correlated with the amount of inhibition of HMPPS by the compound under test.
The compound under test was incorporated into various formulations comprising metabolites and enzymes contained in test tubes, as indicated in TABLE 1.
II--a source of HMMP S, obtained from an extract of E. coli and separated from `synthetase` on Sephadex G-100, according to the method of Richey and Brown in J. Biol. Chem. 244, 1582-1592 (1969)
Control tubes 10 to 12 include a source of both HMPPS and synthetase, unlabelled ATP, 0.1M MgCl2.6H2 O and labelled pAB.
Tubes 1 to 9 containing the amounts of components shown in the Table, were filled up to 200 μl with distilled water, incubated for 60 minutes at 37° C. and then chilled on ice. Dextrose (20 μl containing 72.1 mg/ml) and hexokinase (5 μl containing 2000 units/ml) were added to the solution, which was then allowed to stand at room temperature for 15 minutes. `Darco-G-60` (Registered Trade Mark) (10 mg) was added to each tube and the contents mixed periodically for 10 minutes. The charcoal was removed through a "Millipore AP 250 2200" (Registered Trade Mark) filter and the filter was washed with three 10 ml portions of cold water. The Charcoal and the filter were then radioactively counted.
The radioactive count from the contents of tubes 2 and 3 was taken as the maximum count, since these tubes contained no test compound and thus gave 0% enzyme inhibition. The percentage inhibition produced by the contents of the remaining tubes could then be calculated by relating their radioactive count to the maximum, as determined above.

coccidiosis = assay: potentiating effect against coccidiosis; assay type: in vivo; details: replacement of DMHP
[2] = pteridine 3 μg/ml, TMP 30 μg/ml
[3] = pteridine 10 μg/ml, TMP 30 μg/ml

T1 sequence (P26281 whole entry): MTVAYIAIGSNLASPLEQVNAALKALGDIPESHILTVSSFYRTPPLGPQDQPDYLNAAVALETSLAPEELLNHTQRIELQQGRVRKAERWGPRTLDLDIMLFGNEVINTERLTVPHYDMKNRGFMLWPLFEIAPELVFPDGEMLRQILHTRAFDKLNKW

COc1ccc(Cc2cnc(N)nc2N)cc1OC [DV, 2,4-diamino-5-(3',4'-dimethoxybenzyl) pyrimidine]
Mortality from Coccidiosis (E. tenella): 8/10 and 8/9
activity alone against Pasteurella multocida (Pasteurella multocida; Example 3 Experiment 1): low activity alone
Average Weight of surviving chicks (Pasteurella multocida; Table 5, doses as in E44): 140.0 gm
Cumulative Mortality on day 2 (Pasteurella multocida; Table 5, doses as in E44): 2 and 1
Cumulative Mortality on day 5 (Pasteurella multocida; Table 5, doses as in E44): 6 and 5
Cumulative Mortality on day 6 (Pasteurella multocida; Table 5, doses as in E44): 6 and 8
Cumulative Mortality on day 7 (Pasteurella multocida; Table 5, doses as in E44): 7 and 9
Cumulative Mortality on day 8 (Pasteurella multocida; Table 5, doses as in E44): 7 and 10
Cumulative Mortality on day 9 (Pasteurella multocida; Table 5, doses as in E44): 7
Cumulative Mortality on day 10 (Pasteurella multocida; Table 5, doses as in E44): 7

CCC1(CC)Nc2nc(N)nc(O)c2N=C1CO [R = CH2 OH R = R^2 = Et, 2-amino-4-hydroxy-6-hydroxymethyl-7,7-diethyl-7,8-dihydropteridine]
complete zone inhibition, SMX (300) (Pseudomonas aeruginosa; pteridine 3 μg/ml): 9.0 centimeters
zone including partial inhibition, SMX (300) (Pseudomonas aeruginosa; pteridine 3 μg/ml): 13.0 centimeters
zone including partial inhibition, TMP (30) (Pseudomonas aeruginosa; pteridine 3 μg/ml): 3.0 centimeters
complete zone inhibition, TMP + SMX (5) (100) (Pseudomonas aeruginosa; pteridine 3 μg/ml): 7.0 centimeters
zone including partial inhibition, TMP + SMX (5) (100) (Pseudomonas aeruginosa; pteridine 3 μg/ml): 10.0 centimeters
complete zone inhibition, SMX (300) (Pseudomonas aeruginosa; pteridine 10 μg/ml): 13 centimeters
zone including partial inhibition, SMX (300) (Pseudomonas aeruginosa; pteridine 10 μg/ml): 16.0 centimeters
zone including partial inhibition, TMP (30) (Pseudomonas aeruginosa; pteridine 10 μg/ml): 5.0 centimeters
complete zone inhibition, TMP + SMX (5) (100) (Pseudomonas aeruginosa; pteridine 10 μg/ml): 8.0 centimeters
zone including partial inhibition, TMP + SMX (5) (100) (Pseudomonas aeruginosa; pteridine 10 μg/ml): 12.0 centimeters
synergism with TMP and SMX against Staphylococcus aureus (Staphylococcus aureus; compared with DMHP): slightly more active than DMHP
complete zone inhibition, SMX (300) (Staphylococcus aureus; pteridine 3 μg/ml): 6.5 centimeters
zone including partial inhibition, SMX (300) (Staphylococcus aureus; pteridine 3 μg/ml): 12.5 centimeters
complete zone inhibition, TMP (30) (Staphylococcus aureus; [2]): 8.5 centimeters
zone including partial inhibition, TMP (30) (Staphylococcus aureus; [2]): 10.5 centimeters
complete zone inhibition, TMP + SMX (5) (100) (Staphylococcus aureus; pteridine 3 μg/ml): 10.5 centimeters
zone including partial inhibition, TMP + SMX (5) (100) (Staphylococcus aureus; pteridine 3 μg/ml): 12.5 centimeters
complete zone inhibition, SMX (300) (Staphylococcus aureus; pteridine 10 μg/ml): 10.5 centimeters
zone including partial inhibition, SMX (300) (Staphylococcus aureus; pteridine 10 μg/ml): 14.0 centimeters
complete zone inhibition, TMP (30) (Staphylococcus aureus; [3]): 10.5 centimeters
zone including partial inhibition, TMP (30) (Staphylococcus aureus; [3]): 13.0 centimeters
complete zone inhibition, TMP + SMX (5) (100) (Staphylococcus aureus; pteridine 10 μg/ml): 11.0 centimeters
zone including partial inhibition, TMP + SMX (5) (100) (Staphylococcus aureus; pteridine 10 μg/ml): 14.5 centimeters
complete zone inhibition, TMP (30) (Staphylococcus aureus; pteridine 30 μg/ml in medium, TMP 30 μg/ml in well, about 6× magnification): 12.5 centimeters
complete zone inhibition, SMX (300) (Staphylococcus aureus; pteridine 30 μg/ml): 12.5 centimeters
zone including partial inhibition, SMX (300) (Staphylococcus aureus; pteridine 30 μg/ml): 17.0 centimeters
zone including partial inhibition, TMP (30) (Staphylococcus aureus; pteridine 30 μg/ml, TMP 30 μg/ml): 17.0 centimeters
complete zone inhibition, TMP + SMX (5) (100) (Staphylococcus aureus; pteridine 30 μg/ml): 12.5 centimeters
zone including partial inhibition, TMP + SMX (5) (100) (Staphylococcus aureus; pteridine 30 μg/ml): 17.0 centimeters

CC1=Nc2c(O)nc(N)nc2NC1(C)C [R=Me, R^1=Me, R^2=Me, 2-Amino-4-hydroxy-6-methyl-7,7-dimethyl-7,8-dihydropteridine]
IC50 [1]: 75 µM
potentiating effect against coccidiosis (coccidiosis): noticeable, athough less marked potentiating effect
